Assays:
[1] = tested on: white goosefoot (Chenepodium album; CHEAL); experiment: Greenhouse herbicidal efficacy test, tank mix of herbicide and adjuvant, post-emergence spray; type: in vivo; conditions: 0% no damage, 100% complete damage
Method: (§1) The alkoxylates were applied by the tank mix method together with Basagran (480 g/l bentazone) or BAS 635 H (71.4% by weight of tritosulfuron). […] The herbicidal effect was assessed in a greenhouse experiment. The test plant used was white goosefoot (Chenepodium album; CHEAL) and the common morningglory (Pharbitis album; PHAAL).
(§2) The plants were sown directly or pricked out at a rate of 3-15 plants per pot. When the active ingredient was applied, the plants were 5-16 cm in height. The test containers used were plastic pots containing loamy sand and approximately 3% humus as substrate. The surfactants were applied by the tank mix method by spray application post-emergence in an automated spray cabinet with a water application rate of 400 liters per hectare. The experimental period was 6 days to 4 weeks. Evaluation was carried out using a scale of from 0% to 100%. 0% means no damage, 100% means complete damage.

[2] = tested on: common morningglory (Pharbitis album; PHAAL); experiment: as above; type: in vivo; conditions: Tritosulfuron (BAS 635 H) 0.250 kg/ha as printed in table + adjuvant 0.125 kg/ha (Comparison 0.250 kg/ha), 0% no damage, 100% complete damage
Method: as §1, §2

SMILES	CHEAL herbicidal effect (damage, scale 0% to 100%) ([1]; Bentazone (Basagran) 0.250 kg/ha + adjuvant 0.125 kg/ha (Comparison 0.250 kg/ha), 400 l/ha water) [%]	PHAAL herbicidal effect (damage, scale 0% to 100%) [2] [%]	CHEAL herbicidal effect (damage, scale 0% to 100%) ([1]; Tritosulfuron (BAS 635 H) 0.250 kg/ha as printed in table + adjuvant 0.125 kg/ha (Comparison 0.250 kg/ha)) [%]
CC(C)N1C(=O)c2ccccc2NS1(=O)=O [Bentazone, bentazone]	23	–	–
COc1nc(NC(=O)NS(=O)(=O)c2ccccc2C(F)(F)F)nc(C(F)(F)F)n1 [Tritosulfuron, tritosulfuron]	–	48	35

Source: patent US8877681B2, “Use of specific alcohol alkoxylates as an adjuvant for agrotechnical applications” (BASF SE, priority 2002, dated 2014)
